The record followed here is patent US12497397B2, “Pyrrole compounds useful as antifungals” (WIGEN BIOMEDICINE TECHNOLOGY (SHANGHAI) CO., LTD., priority 2019, dated 2025).

Holding throughout (assay): In vitro minimum inhibitory concentration (MIC) test
What all share (type): cell-based
Details in all cases: RPMI 1640, 35° C., 24-48 h, 485 nm, lowest concentration inhibiting growth more than 80%

For one experiment, the system named is Aspergillus niger. As for the experimental part:
(§1) Example 20: In Vtro Minimum Inhibitory Concentration (MIC) Test Strains used in the experiment are inoculated on Sabouraud glucose agar culture medium and cultured at 35° C. for 5 d; then 1 mL of 0.2% Tween diluted with 0.85% sterile normal saline is added into Sabouraud dextrose agar culture medium, and plate is shaken, before solution collected from plate surface is transferred into sterile tube, and fungus containing supernatant is transferred into sterile tube in full suspension so as to prepare strain diluent with concentration from 0.4*10^6 to 5*10^6 CFU/mL. Strain diluent prepared herein is diluted into RPMI 1640 culture medium in a ratio of 1:100. Such biological suspension is added into hole on the plate which contains drug diluent; all plates are incubated at 35° C. for 24-48 h, and light in wavelength of 485 nm is monitored for each hole to evaluate strain growth. MIC of compound is defined as follows: Compared with negative control free of drug, the lowest drug concentration able to inhibit growth for more than 80% of strains. A indicates MIC value>0.1 μg/mL, B indicates 0.1 μg/mL≥MIC value>0.01 μg/mL, and C indicates MIC value<0.01 μg/mL.

In the next experiment the test system is Aspergillus terreus. As for the experimental part: as §1
The next experiment relates to Aspergillus flavus. Here is the method:
as §1

The subject of the next experiment is Aspergillus fumigatus. As for the experimental part: as §1

Values after ≈ are worked out from the molar mass of the structure shown.

Broadly, the MIC is the lowest concentration found to suppress growth. High values mean weaker potency, low ones greater potency.

As for `Cc1cc(-c2ccccc2)c(C(=O)C(=O)Nc2ccc3c(c2)OC[C@@H]2CN(c4ncc(F)cn4)CCN32)n1C` [Example 1-A], the MIC against Aspergillus niger, against Aspergillus terreus, with Aspergillus flavus and against Aspergillus fumigatus was below 0.01 µg/mL throughout.

In the case of `Cc1cc(-c2ccccc2)c(C(=O)C(=O)Nc2ccc3c(c2)OC[C@H]2CN(c4ncc(F)cn4)CCN32)n1C` [Example 1-B], the minimal inhibitory concentration (MIC) with Aspergillus niger, against Aspergillus terreus, in the experiment on Aspergillus flavus and against Aspergillus fumigatus was below 0.01 µg/mL in each case.

In the case of `Cc1cc(-c2ccccc2)c(C(=O)C(=O)Nc2ccc3c(c2)OCC2CN(c4ncc(F)cn4)CCN32)n1C` (stereo not drawn) [Example 1], the MIC with Aspergillus niger, against Aspergillus terreus, in the experiment on Aspergillus flavus and in the experiment on Aspergillus fumigatus was below 0.01 µg/mL each time.

For the molecule `Cc1cc(C)nc(N2CCN3c4ccc(NC(=O)C(=O)c5c(-c6ccccc6)cc(C)n5C)cc4OC[C@@H]3C2)c1` [Example 2-A], the minimum inhibitory concentration (MIC) against Aspergillus niger, in the experiment with Aspergillus terreus, against Aspergillus flavus and in the experiment with Aspergillus fumigatus was below 0.01 µg/mL each time.

For `Cc1cc(C)nc(N2CCN3c4ccc(NC(=O)C(=O)c5c(-c6ccccc6)cc(C)n5C)cc4OC[C@H]3C2)c1` [Example 2-B], the MIC against Aspergillus niger, in the experiment with Aspergillus terreus, with Aspergillus flavus and with Aspergillus fumigatus was below 0.01 µg/mL throughout.

Take `Cc1cc(C)nc(N2CCN3c4ccc(NC(=O)C(=O)c5c(-c6ccccc6)cc(C)n5C)cc4OCC3C2)c1` (stereo not drawn) [Example 2]: the MIC against Aspergillus niger, against Aspergillus terreus, against Aspergillus flavus and in the experiment on Aspergillus fumigatus was below 0.01 µg/mL each time.

In the case of `Cc1cc(-c2ccccc2)c(C(=O)C(=O)Nc2ccc3c(c2)OCC2CN(CC(C)(C)C)CCN32)n1C` (stereo not drawn) [Example 8], the MIC was 0.01 to 0.1 µg/mL (≈ 0.02 to 0.2 µM) in the experiment with Aspergillus niger, below 0.01 µg/mL in the experiment on Aspergillus terreus, 0.01 to 0.1 µg/mL (≈ 0.02 to 0.2 µM) against Aspergillus flavus and below 0.01 µg/mL in the experiment on Aspergillus fumigatus.

In the case of `Cc1cc(-c2ccccc2)c(C(=O)C(=O)Nc2cc3c(cc2F)N2CCN(c4ncc(F)cn4)CC2CO3)n1C` (stereo not drawn) [Example 9], the MIC in the experiment on Aspergillus niger, against Aspergillus terreus, in the experiment on Aspergillus flavus and against Aspergillus fumigatus was below 0.01 µg/mL in each case.

In the case of `Cc1cc2c(cc1NC(=O)C(=O)c1c(-c3ccccc3)cc(C)n1C)OCC1CN(c3ncc(F)cn3)CCN21` (stereo not drawn) [Example 10], the MIC against Aspergillus niger, against Aspergillus terreus, against Aspergillus flavus and in the experiment with Aspergillus fumigatus was 0.01 to 0.1 µg/mL (≈ 0.0185 to 0.185 µM) throughout.

On to `Cc1cc(-c2ccccc2)c(C(=O)C(=O)Nc2ccc3c(c2)N(C)C[C@@H]2CN(c4ncc(F)cn4)CCN32)n1C` [Example 12-A], for which the MIC against Aspergillus niger, against Aspergillus terreus, in the experiment with Aspergillus flavus and with Aspergillus fumigatus was below 0.01 µg/mL in each case.

With `Cc1cc(-c2ccccc2)c(C(=O)C(=O)Nc2ccc3c(c2)N(C)C[C@H]2CN(c4ncc(F)cn4)CCN32)n1C` [Example 12-B], the MIC in the experiment on Aspergillus niger, in the experiment with Aspergillus terreus, with Aspergillus flavus and against Aspergillus fumigatus was below 0.01 µg/mL each time.

On to `Cc1cc(-c2ccccc2)c(C(=O)C(=O)Nc2ccc3c(c2)N(C)CC2CN(c4ncc(F)cn4)CCN32)n1C` (stereo not drawn) [Example 12], for which the MIC was 0.01 to 0.1 µg/mL (≈ 0.0185 to 0.185 µM) in the experiment on Aspergillus niger, below 0.01 µg/mL with Aspergillus terreus, 0.01 to 0.1 µg/mL (≈ 0.0185 to 0.185 µM) in the experiment on Aspergillus flavus and below 0.01 µg/mL with Aspergillus fumigatus.

For the molecule `Cc1cc(C)nc(N2CCN3c4ccc(NC(=O)C(=O)c5c(-c6ccccc6)cc(C)n5C)cc4N(C)C[C@@H]3C2)c1` [Example 13-A], the MIC with Aspergillus niger was 0.01 to 0.1 µg/mL (≈ 0.0182 to 0.182 µM); against Aspergillus terreus, below 0.01 µg/mL; in the experiment with Aspergillus flavus it was 0.01 to 0.1 µg/mL (≈ 0.0182 to 0.182 µM); with Aspergillus fumigatus, below 0.01 µg/mL.

Turning to `Cc1cc(C)nc(N2CCN3c4ccc(NC(=O)C(=O)c5c(-c6ccccc6)cc(C)n5C)cc4N(C)C[C@H]3C2)c1` [Example 13-B], the MIC in the experiment on Aspergillus niger is 0.01 to 0.1 µg/mL (≈ 0.0182 to 0.182 µM); in the experiment on Aspergillus terreus, below 0.01 µg/mL; with Aspergillus flavus, 0.01 to 0.1 µg/mL (≈ 0.0182 to 0.182 µM); in the experiment on Aspergillus fumigatus it was below 0.01 µg/mL.

`Cc1cc(C)nc(N2CCN3c4ccc(NC(=O)C(=O)c5c(-c6ccccc6)cc(C)n5C)cc4N(C)CC3C2)c1` (stereo not drawn) [Example 13]: the minimum inhibitory concentration (MIC) was 0.01 to 0.1 µg/mL (≈ 0.0182 to 0.182 µM) with Aspergillus niger, below 0.01 µg/mL against Aspergillus terreus, 0.01 to 0.1 µg/mL (≈ 0.0182 to 0.182 µM) against Aspergillus flavus and below 0.01 µg/mL in the experiment with Aspergillus fumigatus.

Turning to `CCn1c(C)cc(-c2ccccc2)c1C(=O)C(=O)Nc1ccc2c(c1)OCC1CN(c3ncc(F)cn3)CCN21` (stereo not drawn) [Example 14], the MIC with Aspergillus niger is 0.01 to 0.1 µg/mL (≈ 0.0185 to 0.185 µM); in the experiment on Aspergillus terreus it was below 0.01 µg/mL; against Aspergillus flavus, below 0.01 µg/mL; in the experiment with Aspergillus fumigatus it was below 0.01 µg/mL.

As for `COCCn1c(C)cc(-c2ccccc2)c1C(=O)C(=O)Nc1ccc2c(c1)OCC1CN(c3ncc(F)cn3)CCN21` (stereo not drawn) [Example 16], the MIC is below 0.01 µg/mL against Aspergillus niger, below 0.01 µg/mL in the experiment on Aspergillus terreus, below 0.01 µg/mL against Aspergillus flavus and 0.01 to 0.1 µg/mL (≈ 0.0175 to 0.175 µM) in the experiment with Aspergillus fumigatus.

`CCC(C)n1ncn(-c2ccc(N3CCN(c4ccc(OCC5COC(Cn6cncn6)(c6ccc(Cl)cc6Cl)O5)cc4)CC3)cc2)c1=O` (stereo not drawn) [Itraconazole, reference compound]: the MIC against Aspergillus niger, against Aspergillus terreus, against Aspergillus flavus and with Aspergillus fumigatus was above 0.1 µg/mL throughout.
